The target of the test is NaV 1.8 channel (Homo sapiens, UniProt Q9Y5Y9). The test is described as follows: Activity against NaV 1.8 channel (optical membrane potential assay). The format is cell-based. A digest of the protocol: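 Cells expressing the NaV of interest loaded with CC2-DMPE (30 min, room temperature) then DiSBAC2(3) with ABSCl and veratridine; compound incubated 20–30 min. Depolarization triggered by sodium add-back and read on VIPR as 460/580 nm FRET ratio (Rf/Ri), normalized to tetracaine and untreated controls.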
NaV 1.8 channel, sequence (Q9Y5Y9 whole entry): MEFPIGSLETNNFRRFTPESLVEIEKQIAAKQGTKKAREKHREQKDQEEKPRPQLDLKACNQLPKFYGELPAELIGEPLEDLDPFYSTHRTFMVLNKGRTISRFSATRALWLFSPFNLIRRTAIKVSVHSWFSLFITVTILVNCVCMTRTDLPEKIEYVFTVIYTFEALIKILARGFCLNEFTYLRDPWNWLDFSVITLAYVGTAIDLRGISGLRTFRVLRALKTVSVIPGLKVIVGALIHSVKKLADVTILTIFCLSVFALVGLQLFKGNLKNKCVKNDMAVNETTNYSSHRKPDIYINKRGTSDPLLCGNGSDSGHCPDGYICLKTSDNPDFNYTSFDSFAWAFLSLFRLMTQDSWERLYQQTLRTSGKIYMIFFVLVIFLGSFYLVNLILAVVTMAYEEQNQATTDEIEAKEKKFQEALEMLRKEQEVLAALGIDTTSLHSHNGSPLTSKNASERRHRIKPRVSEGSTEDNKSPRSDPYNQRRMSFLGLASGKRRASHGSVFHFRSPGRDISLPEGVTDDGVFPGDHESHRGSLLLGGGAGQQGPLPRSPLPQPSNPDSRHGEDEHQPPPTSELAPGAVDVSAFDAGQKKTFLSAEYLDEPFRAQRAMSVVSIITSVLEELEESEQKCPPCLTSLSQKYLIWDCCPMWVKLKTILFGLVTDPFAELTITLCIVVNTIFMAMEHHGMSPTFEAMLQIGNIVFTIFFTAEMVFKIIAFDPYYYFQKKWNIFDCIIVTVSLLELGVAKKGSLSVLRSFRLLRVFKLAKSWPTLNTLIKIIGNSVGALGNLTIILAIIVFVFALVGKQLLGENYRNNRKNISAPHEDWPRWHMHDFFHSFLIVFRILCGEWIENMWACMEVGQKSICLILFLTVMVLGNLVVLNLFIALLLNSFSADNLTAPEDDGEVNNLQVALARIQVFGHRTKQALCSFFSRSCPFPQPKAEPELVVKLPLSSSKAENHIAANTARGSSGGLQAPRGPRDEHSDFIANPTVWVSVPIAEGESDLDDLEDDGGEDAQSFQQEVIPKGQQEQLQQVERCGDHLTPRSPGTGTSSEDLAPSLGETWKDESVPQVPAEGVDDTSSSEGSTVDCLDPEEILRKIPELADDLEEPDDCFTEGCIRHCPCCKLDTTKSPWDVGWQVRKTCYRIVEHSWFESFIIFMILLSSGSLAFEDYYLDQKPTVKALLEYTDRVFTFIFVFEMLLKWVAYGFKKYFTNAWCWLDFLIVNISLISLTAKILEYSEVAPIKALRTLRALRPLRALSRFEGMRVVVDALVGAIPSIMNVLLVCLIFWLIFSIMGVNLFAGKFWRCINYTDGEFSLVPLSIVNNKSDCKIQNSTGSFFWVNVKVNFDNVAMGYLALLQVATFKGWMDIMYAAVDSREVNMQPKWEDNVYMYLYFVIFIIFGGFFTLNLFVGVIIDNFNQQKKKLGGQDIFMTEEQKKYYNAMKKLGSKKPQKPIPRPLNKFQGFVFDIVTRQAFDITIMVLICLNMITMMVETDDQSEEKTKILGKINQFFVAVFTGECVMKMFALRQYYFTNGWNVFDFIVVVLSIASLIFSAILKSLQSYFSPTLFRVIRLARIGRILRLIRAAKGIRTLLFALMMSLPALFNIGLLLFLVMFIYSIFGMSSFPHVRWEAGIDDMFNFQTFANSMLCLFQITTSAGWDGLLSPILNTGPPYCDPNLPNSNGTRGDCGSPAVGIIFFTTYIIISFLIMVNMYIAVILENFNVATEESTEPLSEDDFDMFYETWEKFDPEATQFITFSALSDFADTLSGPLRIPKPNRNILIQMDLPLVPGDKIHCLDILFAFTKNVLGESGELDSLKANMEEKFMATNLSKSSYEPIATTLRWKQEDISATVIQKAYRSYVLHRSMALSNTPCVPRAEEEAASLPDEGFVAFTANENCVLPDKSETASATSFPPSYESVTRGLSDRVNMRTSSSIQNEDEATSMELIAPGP
In the case of `Cc1ccc2c(N3CC[C@@H](NC(=O)CC4CCOCC4)C3)nc(-c3ccccc3O)nc2c1` [Example 317, 2-(Tetrahydro-2H-pyran-4-yl)-N—((R)-1-(2-(2-hydroxyphenyl)-7-methylquinazolin-4-yl)pyrrolidin-3-yl)acetamide], the IC50 – broadly, the concentration that inhibits the measured activity by half – lay within 2 to 10 µM.

As to `Cc1ccc2c(N3CC[C@@H](NC(=O)CCc4ccccn4)C3)nc(-c3ccccc3O)nc2c1` [Example 318, N—((R)-1-(2-(2-Hydroxyphenyl)-7-methylquinazolin-4-yl)pyrrolidin-3-yl)-3-(pyridin-2-yl)propanamide], the IC50 was over 10 µM.

Consider `Cc1ccc2c(N3CC[C@@H](NC(=O)OCc4cccnc4)C3)nc(-c3ccccc3O)nc2c1` [Example 319, (Pyridin-3-yl)methyl (R)-1-(2-(2-hydroxyphenyl)-7-methylquinazolin-4-yl)pyrrolidin-3-ylcarbamate], for which the IC50 is 2 to 10 µM.

As to `Cc1ccc2c(N3CC[C@@H](NC(=O)OCc4ccncc4)C3)nc(-c3ccccc3O)nc2c1` [Example 320, (Pyridin-4-yl)methyl (R)-1-(2-(2-hydroxyphenyl)-7-methylquinazolin-4-yl)pyrrolidin-3-ylcarbamate], the half-maximal inhibitory concentration (IC50) lay within 2 to 10 µM.

Take `Cc1ccc2c(N3CC[C@@H](NC(=O)OCc4cccc5c4OCO5)C3)nc(-c3ccccc3O)nc2c1` [Example 321, (Benzo[d][1,3]dioxol-7-yl)methyl (R)-1-(2-(2-hydroxyphenyl)-7-methylquinazolin-4-yl)pyrrolidin-3-ylcarbamate]: the 50% inhibitory concentration (IC50) was over 10 µM.

With `Cc1ccc2c(N3CC[C@@H](NC(=O)CCc4cccnc4)C3)nc(-c3ccccc3O)nc2c1` [Example 322, N—((R)-1-(2-(2-Hydroxyphenyl)-7-methylquinazolin-4-yl)pyrrolidin-3-yl)-3-(pyridin-3-yl)propanamide], the concentration for half-maximal inhibition (IC50) was over 10 µM.

Take `Cc1ccc2c(N3CC[C@@H](NC(=O)CCC4CCCC4)C3)nc(-c3ccccc3O)nc2c1` [Example 323, (R)-3-Cyclopentyl-N-{1-[2-(2-hydroxy-phenyl)-7-methyl-quinazolin-4-yl]-pyrrolidin-3-yl}-propionamide]: the half-inhibitory concentration (IC50) is over 10 µM.

As for `Cc1ccc2c(N3CC[C@@H](NC(=O)CCN4CCCCC4)C3)nc(-c3ccccc3O)nc2c1` [Example 324], the half-inhibitory concentration (IC50) was over 10 µM.

Take `Cc1ccc2c(N3CC[C@@H](NC(=O)c4cccc(OC(F)(F)F)c4)C3)nc(-c3ccccc3O)nc2c1` [Example 325, N—((R)-1-(2-(2-Hydroxyphenyl)-7-methylquinazolin-4-yl)pyrrolidin-3-yl)-3-(trifluoromethoxy)benzamide]: the 50% inhibitory concentration (IC50) is over 10 µM.

Consider `COc1cccc(C(=O)N[C@@H]2CCN(c3nc(-c4ccccc4O)nc4cc(C)ccc34)C2)c1` [Example 326, N—((R)-1-(2-(2-Hydroxyphenyl)-7-methylquinazolin-4-yl)pyrrolidin-3-yl)-3-methoxybenzamide], for which the IC50 is over 10 µM.

With `Cc1ccc2c(N3CC[C@@H](NC(=O)c4cccc(C#N)c4)C3)nc(-c3ccccc3O)nc2c1` [Example 327, 3-Cyano-N—((R)-1-(2-(2-hydroxyphenyl)-7-methylquinazolin-4-yl)pyrrolidin-3-yl)benzamide], the IC50 is over 10 µM.

`Cc1ccc2c(N3CC[C@@H](NC(=O)c4cccnc4)C3)nc(-c3ccccc3O)nc2c1` [Example 328, N—((R)-1-(2-(2-Hydroxyphenyl)-7-methylquinazolin-4-yl)pyrrolidin-3-yl)nicotinamide]: the IC50 is over 10 µM.

Take `O=C(N[C@@H]1CCN(c2nc(-c3ccccc3O)nc3ccc(F)cc23)C1)C1CC1` [Example 329, N—((R)-1-(6-Fluoro-2-(2-hydroxyphenyl)quinazolin-4-yl)pyrrolidin-3-yl)cyclopropanecarboxamide]: the IC50 is 2 to 10 µM.

Turning to `O=C(N[C@@H]1CCN(c2nc(-c3ccccc3O)nc3ccc(F)cc23)C1)O[C@H]1CCOC1` [Example 335, (S)-Tetrahydrofuran-3-yl (R)-1-(6-fluoro-2-(2-hydroxyphenyl)quinazolin-4-yl)pyrrolidin-3-ylcarbamate], the half-inhibitory concentration (IC50) lay in the range of 2 to 10 µM.

Regarding `O=C(N[C@@H]1CCN(c2nc(-c3ccccc3O)nc3ccc(F)cc23)C1)O[C@@H]1CCOC1` [Example 337, (R)-Tetrahydrofuran-3-yl (R)-1-(6-fluoro-2-(2-hydroxyphenyl)quinazolin-4-yl)pyrrolidin-3-ylcarbamate], the 50% inhibitory concentration (IC50) was 2 to 10 µM.

With `O=C(CC1CCOCC1)N[C@@H]1CCN(c2nc(-c3ccccc3O)nc3ccc(F)cc23)C1` [Example 338, N—((R)-1-(6-Fluoro-2-(2-hydroxyphenyl)quinazolin-4-yl)pyrrolidin-3-yl)-2-(tetrahydro-2H-pyran-4-yl)acetamide], the IC50 was over 10 µM.

With `O=C(N[C@@H]1CCN(c2nc(-c3ccccc3O)nc3ccc(F)cc23)C1)OCC1CCCCO1` (stereo partly drawn) [Example 339, (Tetrahydro-2H-pyran-2-yl)methyl (R)-1-(6-fluoro-2-(2-hydroxyphenyl)quinazolin-4-yl)pyrrolidin-3-ylcarbamate], the IC50 fell in the range of 2 to 10 µM.

On to `Cc1ccc2c(N3CC[C@@H](NC(=O)C4C(C)(C)C4(C)C)C3)nc(-c3ccccc3O)nc2c1` [Example 340, N—((R)-1-(2-(2-Hydroxyphenyl)-7-methylquinazolin-4-yl)pyrrolidin-3-yl)-2,2,3,3-tetramethylcyclopropanecarboxamide], for which the concentration for half-maximal inhibition (IC50) was under 2 µM.

Consider `Cc1ccc2c(N3CC[C@@H](NC(=O)c4cccc(N(C)C)c4)C3)nc(-c3ccccc3O)nc2c1` [Example 342, 3-(Dimethylamino)-N—((R)-1-(2-(2-hydroxyphenyl)-7-methylquinazolin-4-yl)pyrrolidin-3-yl)benzamide], for which the half-inhibitory concentration (IC50) was over 10 µM.

As to `Cc1ccc2c(N3CC[C@@H](NC(=O)O[C@H]4CCOC4)C3)nc(-c3c(O)cccc3F)nc2c1` [Example 345, (S)-Tetrahydrofuran-3-yl (R)-1-(2-(2-fluoro-6-hydroxyphenyl)-7-methylquinazolin-4-yl)pyrrolidin-3-ylcarbamate], the IC50 lay within 2 to 10 µM.

On to `Cc1ccc2c(N3CC[C@@H](NC(=O)C4CC4)C3)nc(-c3c(O)cccc3F)nc2c1` [Example 346, N—((R)-1-(2-(2-Fluoro-6-hydroxyphenyl)-7-methylquinazolin-4-yl)pyrrolidin-3-yl)cyclopropanecarboxamide], for which the half-inhibitory concentration (IC50) was in the range of 2 to 10 µM.

In the case of `O=C(N[C@@H]1CCN(c2nc(-c3ccccc3O)nc3ccc(F)cc23)C1)c1ccncc1` [Example 347, N—((R)-1-(6-Fluoro-2-(2-hydroxyphenyl)quinazolin-4-yl)pyrrolidin-3-yl)isonicotinamide], the IC50 was over 10 µM.

In the case of `O=C(N[C@@H]1CCN(c2nc(-c3ccccc3O)nc3ccc(F)cc23)C1)c1ccccn1` [Example 348, N—((R)-1-(6-Fluoro-2-(2-hydroxyphenyl)quinazolin-4-yl)pyrrolidin-3-yl)picolinamide], the half-maximal inhibitory concentration (IC50) was over 10 µM.

In the case of `O=C(N[C@@H]1CCN(c2nc(-c3ccccc3O)nc3ccc(F)cc23)C1)c1cccnc1` [Example 349, N—((R)-1-(6-Fluoro-2-(2-hydroxyphenyl)quinazolin-4-yl)pyrrolidin-3-yl)nicotinamide], the IC50 is over 10 µM.

For `Cc1ccc2c(N3CC[C@@H](NC(=O)c4ccncc4)C3)nc(-c3c(O)cccc3F)nc2c1` [Example 350, N—((R)-1-(2-(2-Fluoro-6-hydroxyphenyl)-7-methylquinazolin-4-yl)pyrrolidin-3-yl)isonicotinamide], the half-maximal inhibitory concentration (IC50) is over 10 µM.

The values above are taken from patent US7928107B2, “Quinazolines useful as modulators of ion channels” (Vertex Pharmaceuticals Incorporated, priority 2004, dated 2011).
